# Results as given in patent publication US20200115446A1 (NATIONAL UNIVERSITY CORPORATION HOKKAIDO UNIVERSITY, priority 2017, published 2020).
# “Also recorded” adds a separate entry of the source.
# Key:
# Format in all cases: in vivo, rat
# serum TRACP-5b [1] = experiment: Bone resorption marker (serum TRACP-5b) by ELISA, pediatric steroid-induced osteoporosis model rats; details: after 6 weeks (age of 12 weeks)
# Experimental: (§1) 6-week-old growing female LEW/Cr1Crlj rats were used.
# (§2) On the other hand, a steroid-induced osteoporosis model with rats has not been established. Thus, in this Example, a model rat with Prednisolone 25 mg/pellet/60 days implanted under the skin of a 6-week-old female LEW/Cr1Crlj rat was employed as a pediatric steroid-induced osteoporosis model. In this model, it was confirmed that 2, 4 and 6 weeks after implantation of prednisolone, the femur BMD decreased, and the maximum stress of each of the femur and the lumber vertebra decreased.
# (§3) (3) Experimental Group (n=10 in Each Group) (i) Sham group: Sham-operation+Vehicle (PBS) (subcutaneous administration) (ii) GC group: Prednisolone (PSL) pellet 25 mg/pellet/60 days-subcutaneous implantation (GC)+Vehicle (PBS) (subcutaneous administration) (iii) GC+Siglec-15Ab group: GC treatment was performed, and an anti-Siglec-15 antibody was subcutaneously administered once every 3 weeks at a dosage of 1 mg/kg (low dosage) or at a dosage of 10 mg/kg (high dosage). The #32A1 antibody was used as the anti-Siglec-15 antibody. […]
# (§4) Before the start of administration, and 6 weeks after administration and before euthanasia, blood was collected from the tail vein, and the values of a bone formation marker (serum osteocalcin) and a bone resorption marker (serum TRACP-5b) in the blood were measured by an ELISA method.
# [2] = Confirmation of the prednisolone pellet model of pediatric steroid-induced osteoporosis; details: 2, 4 and 6 weeks after implantation of Prednisolone 25 mg/pellet/60 days
# Experimental: as §2
# Prednisolone 25 mg/pellet/60 days is administered at a dose of 0.42 mg a day. This dose is equivalent to 3.5 mg/kg/day for a 6-week-old rat (body weight: 120 g), and equivalent to 105 mg/day for a child having a body weight of 30 kg.
# osteoclasts [3] = experiment: TRACP staining of osteoclasts in the primary spongiosa region, pediatric steroid-induced osteoporosis model rats; details: GC model rats, proximal tibia, age of 12 weeks, vs. GC group (ALN also vs. Sham group)
# Experimental: as §1, §2
# (§5) (3) Experimental Group (n=10 in Each Group) (i) Sham group: Sham-operation+Vehicle (PBS) (subcutaneous administration) (ii) GC group: Prednisolone (PSL) pellet 25 mg/pellet/60 days-subcutaneous implantation (GC)+Vehicle (PBS) (subcutaneous administration) (iii) GC+Siglec-15Ab group: GC treatment was performed, and an anti-Siglec-15 antibody was subcutaneously administered once every 3 weeks at a dosage of 1 mg/kg (low dosage) or at a dosage of 10 mg/kg (high dosage). The #32A1 antibody was used as the anti-Siglec-15 antibody.
# (§6) 6 weeks after the start of administration (age of 6 weeks to age of 12 weeks). After the end of the period (age of 12 weeks), the animals were euthanized, and evaluation was performed. […]
# [4] = Body weight, head trunk length and femur length, pediatric steroid-induced osteoporosis model rats; details: GC model rats
# Experimental: as §1, §2, §5
# (§7) 6 weeks after the start of administration (age of 6 weeks to age of 12 weeks). After the end of the period (age of 12 weeks), the animals were euthanized, and evaluation was performed.
# (§8) The head trunk length was measured 0, 3 and 6 weeks after administration. The body weight was measured once a week.
# (§9) The femur length was measured under anesthesia every 3 weeks by micro-CT imaging.
# (§10) Micro-CT imaging of the femur and the tibia was performed, and the right femur length was measured.
# serum TRACP-5b [5] = experiment: Bone resorption marker (serum TRACP-5b) by ELISA, growing healthy rats; details: age of 12 weeks
# Experimental: (§11) 6-week-old growing male F344 rats were used.
# (§12) (2) Experimental Groups (n=10 in Each Group) (i) Control group (hereinafter, referred to as “Ct1 group”) (ii) Anti-Siglec-15 antibody administration group (hereinafter, referred to as “Sig-15 Ab administration group”): The #32A1 antibody was used as an anti-Siglec-15 antibody. The anti-Siglec-15 antibody was subcutaneously administered once every 3 weeks at a dosage of 0.25, 1 or 4 mg/kg.
# as §7
# (§13) Before the start of administration, and 6 weeks after administration and before euthanasia, blood was collected from the tail vein, and the values of a bone formation marker (serum osteocalcin) and a bone resorption marker (serum TRACP-5b) were measured by an ELISA method.
# [6] = test system: growth cartilage and primary spongiosa region; experiment: Micro-CT and histological evaluation of growth at the proximal tibia, growing healthy rats
# Experimental: as §11, §12, §7
# For bone labeling, calcein was administered 7 days before and 3 days before euthanasia (at an interval of 4 days). The calcein was dissolved in a 1.4% sodium bicarbonate solution at a concentration of 10 mg/ml, and subcutaneously injected to each animal at a dosage of 10 mg/kg.
# (§14) Micro-CT imaging of the femur, the tibia and the fifth lumber vertebra was performed, and the right femur major axis length was measured.
# Non-decalcified hard tissue sample: a coronal section tissue of proximal left tibia ½ (length: about 1.5 cm) was used. The tissue was immersed and fixed in 70% ethanol, and then stored in a cool and dark place. The resulting non-decalcified hard tissue sample was used for Villanueva staining, bright-field observation and fluorescent observation, and quantitative bone morphometry.
# (§15) Decalcified tissue sample: knee joint disarticulation was performed, and samples of a coronal section tissue of the proximal tibia (proximal right knee tibia ½) and a fifth lumber vertebra coronal section tissue were prepared.
# With the non-decalcified hard tissue sample and the decalcified tissue sample, the growth cartilage plate width and the longitudinal growth rate were histologically measured to evaluate growth disorder (“Modern Bone Histomorphometry”, 2014, WENET, Inc.).
# (§16) Osteoclastic cells were detected and evaluated by chemical staining with tartrate-resistant acid phosphatase (TRACP) (hereinafter, referred to as “TRACP staining”) and counter staining with methyl green. The growth cartilage part was detected and evaluated by safranine O staining (staining of acidic mucopolysaccharide).
# [7] = Bone mass (micro-CT, bone microstructure analysis) and BMD (DXA) of the distal femur, pediatric steroid-induced osteoporosis model rats; details: GC model rats, age of 12 weeks
# Experimental: (3) Experimental Group (n=10 in Each Group) (i) Sham group: Sham-operation+Vehicle (PBS) (subcutaneous administration) (ii) GC group: Prednisolone (PSL) pellet 25 mg/pellet/60 days-subcutaneous implantation (GC)+Vehicle (PBS) (subcutaneous administration) (iii) GC+Siglec-15Ab group: GC treatment was performed, and an anti-Siglec-15 antibody was subcutaneously administered once every 3 weeks at a dosage of 1 mg/kg (low dosage) or at a dosage of 10 mg/kg (high dosage). […] (iv) GC+ALN group: GC treatment was performed, and ALN was subcutaneously administered twice a week at a dosage of 0.014 mg/kg (low dosage) or at a dosage of 0.140 mg/kg (high dosage).
# BMD and BMC measurements of the lumber vertebra and the distal left femur were performed by a DXA method using a bone densitometer (manufactured by Hitachi Medical, Ltd.).
# [8] = Compression mechanical test of lumber vertebral body and distal femur metaphysis, growing healthy rats; details: age of 12 weeks, vs. Ct1 group
# Experimental: as §11, §12, §7
# The second, third, fourth and sixth lumber vertebral bodies and the distal metaphysis of the left femur were subjected to a compression test, and the ultimate load (maximum load endured before fracture), stiffness (resistance to deformation) and toughness (energy required before fracture) were evaluated.
# serum osteocalcin [9] = experiment: Bone formation marker (serum osteocalcin) by ELISA, growing healthy rats; details: age of 12 weeks, vs. Ct1 group
# Experimental: as §11, §12, §7, §13
# [10] = test system: growth cartilage and primary spongiosa region; experiment: Micro-CT and histological evaluation of growth at the proximal tibia, pediatric steroid-induced osteoporosis model rats; details: GC model rats
# Experimental: as §1, §2, §5, §7
# For bone labeling, tetracycline was administered 5 days before euthanasia, and calcein was administered 2 days before euthanasia (at an interval of 3 days). The animals were killed 36 hours after calcein administration. […]
# as §10
# Non-decalcified hard tissue sample: a coronal section tissue of proximal left tibia ½ (length: about 1.5 cm) was used. […] The non-decalcified hard tissue sample was stained by Villanueva staining and was used for bright-field observation and fluorescent observation, and quantitative bone morphometry. […]
# Regarding growth disorder, there was the possibility that administration over a period of 6 weeks would not cause a change leading to generation of a difference in femur length, and therefore the growth cartilage plate width and the longitudinal growth rate were histologically measured using the non-decalcified tissue and the decalcified tissue to evaluate growth disorder (“Modern Bone Histomorphometry”, 2014, WENET, Inc.).
# In FIG. 10-1(B), the part labeled in parallel to the growth cartilage and at a distal position represents the region labeled 2 days before euthanasia (white lower arrow), and the part labeled in parallel and at a further distal position represents the region labeled 5 days before euthanasia (white upper arrowhead). The bone growth rate was evaluated on the basis of the distance between the two labeled regions.
# serum osteocalcin [11] = experiment: Bone formation marker (serum osteocalcin) by ELISA, pediatric steroid-induced osteoporosis model rats; details: GC model rats, age of 12 weeks, vs. GC group
# Experimental: as §1, §2, §3, §4
# osteoclasts [12] = experiment: TRACP staining of osteoclasts, growing healthy rats; details: age of 12 weeks, vs. Ct1 group
# Experimental: as §11, §12, §7, §15, §16
# [13] = Compression test of the distal femur end, pediatric steroid-induced osteoporosis model rats; details: GC model rats, age of 12 weeks, vs. GC group
# Experimental: as §1, §2, §5, §6
# [14] = Bone mass (micro-CT) and bone mineral density (DXA), growing healthy rats; details: for BMD value (DXA) / trabecular bone mass (3D-CT): vs. Ct1 group
# Experimental: as §11, §12, §7, §14
# BMD measurement of the lumber vertebra (first to third lumber vertebrae) and the left distal femur end was performed by dual energy X-ray absorptiometric (DXA) method using a bone mineral density measuring apparatus (manufactured by Hitachi Aloka Medical, Ltd.).
# [15] = Head trunk length and femur length, growing healthy rats; details: age of 12 weeks, vs. Ct1 group
# Experimental: as §11, §12, §7, §8, §9, §14
# [16] = age of 6 weeks to 12 weeks, vs. GC group
# [17] = high-dosage administration group
# [18] = proximal tibia, age of 12 weeks, vs. Ct1 group
# [19] = distal femur metaphysis compression test
# [20] = lumber vertebra compression test
# [21] = proximal tibia, age of 12 weeks, vs. Sham, GC and GC+Siglec-15 Ab groups
# [22] = lumber vertebra, age of 12 weeks
structure (smiles),measurement,setting,value
"C[C@]12C=CC(=O)C=C1CC[C@@H]1[C@@H]2[C@@H](O)C[C@@]2(C)[C@H]1CC[C@]2(O)C(=O)CO [prednisolone, Prednisolone]",increase of the level of TRACP-5b,serum TRACP-5b [1]; GC group (prednisolone pellet + vehicle),75%
same,maximum stress of the femur,[2],decreased
same,maximum stress of the lumber vertebra,[2],decreased
same,femur BMD,[2]; 6-week-old female rat,decreased
"NCCCC(O)(P(=O)(O)O)P(=O)(O)O [ALN, Alendronate]",number of TRACP positive cells in the primary spongiosa region,osteoclasts [3],significantly decreased
same,amount of change in body weight,[4]; [16],no significant difference
same,amount of change in femur length,[4]; [16],no significant difference
same,amount of change in head trunk length,[4]; [16],no significant difference
same,femur length,[4]; [17],tended to decrease
same,head trunk length,[4]; [17],tended to decrease
same,serum TRACP-5b level,"serum TRACP-5b [1]; GC model rats, in contrast to GC group",significantly decreased
same,serum TRACP-5b level,serum TRACP-5b [5],decreased depending on the dosage
same,growth cartilage plate width (3D-CT image),"[6]; age of 12 weeks, ALN particularly high dosage",decreased
same,shape of the proximal tibia in 3D-CT images,"[6]; age of 12 weeks, vs. Ct1 group, ALN particularly high dosage",cup-like shape
same,arrangement of safranine O staining positive growth cartilage regions,"[6]; proximal tibia, age of 12 weeks",disordered arrangement
same,growth cartilage width (tissue sample),[6]; [18],decreased; also recorded: significantly inferior
same,safranine O staining positive regions in the bone in the primary spongiosa region,[6]; [18],expanded
same,bone growth rate,"[6]; proximal tibia, calcein labeling 7 and 3 days before euthanasia, vs. Ct1 group",low bone growth rate; also recorded: significantly inferior
same,BMD of the distal femur (DXA),[7]; vs. GC group,increased in a dosage-dependent manner
same,"bone mass (3D-CT), region immediately above the growth plate to the proximal femur",[7]; distal femur metaphysis,increased in a dosage-dependent manner
same,bone mass (BV/TV),"[7]; secondary spongiosa region of distal femur, vs. GC group, ALN high dosage",significantly increased
same,stiffness,[8]; [19],increased in a dosage-dependent manner
same,toughness,[8]; [19],increased in a dosage-dependent manner
same,ultimate load,[8]; [19],increased in a dosage-dependent manner
same,stiffness,[8]; [20],significantly increased
same,ultimate load,[8]; [20],significantly increased
same,serum osteocalcin level,serum osteocalcin [9],not significantly different
same,shape of the proximal tibia in 3D-CT images,"[10]; age of 12 weeks, vs. Sham group, ALN high dosage",cup-like (cupping) shape
same,growth cartilage width,[10]; [21],"tended to slightly decrease, but was not statistically significantly different"
same,safranine O staining positive regions (cartilage matrix) in the bone in the primary spongiosa region,[10]; [21],more safranine O staining positive (red) regions
same,bone growth rate,"[10]; proximal tibia, tetracycline/calcein labeling, among Sham, GC and treated groups",no significant difference
same,serum osteocalcin level,serum osteocalcin [11],not significantly different
same,number of TRACP positive cells in the secondary spongiosa region,osteoclasts [12]; lumber vertebra,decreased
same,number of TRACP positive cells in primary spongiosa region,osteoclasts [12]; proximal tibia,evidently decreased
same,number of TRACP positive cells in secondary spongiosa region,osteoclasts [12]; proximal tibia,decreased
same,maximum stress,[13],"tended to increase, and were not significantly different"
same,toughness,[13],"tended to increase, and were not significantly different"
same,BMD value (DXA),"[14]; distal femur, age of 12 weeks",increased depending on the dosage
same,trabecular bone mass (3D-CT),"[14]; distal femur, age of 12 weeks",increased depending on the dosage
same,bone trabecular thickness (histological),"[14]; long bone, particularly high-dosage group",increased
same,bone mass in the primary spongiosa (3D-CT),[14]; [22],particularly increased
same,BMD value (DXA),[14]; [22],increased depending on the dosage
same,trabecular bone mass (3D-CT),[14]; [22],increased depending on the dosage
same,femur length,[15],decreased
same,head trunk length,[15],decreased
